# Structures can show the parent of a compound that is named as a salt.
# Tests used:
# [1] = system: complement activation (C3a-desarg); assay: in vitro complement activation, C3a-desarg measured by ELISA after Zymosan addition; format: biochemical, rat
# Method: The complement activation was determined from the concentration of C3a-desarg measured by ELISA (rat C3adesARG ELISA #CL89160K; Cedarlane Laboratories Ltd., Hornby, Ontario, Canada). The C3a-desarg levels were expressed as concentrations. Venous blood was used and introduced in a lepirudin treated 5 cc syringe (50 μl lepirudin (5 mg/ml)+70 μl PBS in the syringe and needle). 0.4 ml was transferred to a 3 cc tube with 1.5 ml PD fluid with citrate additions of 0, 2, 4, 6, 8, and 10 mM, respectively, (i.e. 0, 12, 24, 36, 48, 60 μl of a citrate solution with the citrate concentration of 250 mM). Thereafter the samples were spun to remove the blood cells. 1 ml of the supernatant was transferred to a new tube, 20 μl Zymosan (20 mg/ml) was added and the tube. Thereafter EDTA was added to a final concentration of 15 mM, the Zymosan was spun down, and samples of the supernatant were used for the ELISA measurement referred to above. […] However, the upper limit of citrate, which could be present in a PD fluid, is limited by the total amount of buffer solution within the PD fluid. The amount of added citrate influence the total amount of buffer in the PD fluid since citrate also give rise to a buffer effect. Thus, the buffer used in the PD fluid has to be decreased equal to the equivalent amount of added citrate. […]
# [2] = in vivo ultrafiltration volume, intraperitoneal volume by Texas Red labelled albumin dilution; details: 10 mM citrate in PD fluid; 2 hours after infusion; FIG. 2
# Method: The lower limit of the citrate concentration is evident from FIG. 1, where a reasonable inhibited complement cascade is provided with a citrate concentration of at least 4 mM. The ultrafiltration volume was determined with the aid of a fluorescence labelled albumin. This was used as volume marker according to a recently developed technique, in which Texas Red® labelled bovine serum albumin (TR-BSA) has been used as a tracer for determinations of plasma volume. The fluorescence characteristics of TR-BSA (Molecular Probes, Eugene, Oreg., USA) solved in fresh and used PD fluid were evaluated, showing a linear relationship between fluorescence (excitation at 570 nm and emission at 615 nm) and concentration in the range of 0-20 μg/ml. By adding 1 mg/ml of unlabeled bovine serum albumin, a small difference in baseline fluorescence between the fresh and the used PD fluid was eliminated. […] In the present tests, 100 μg Texas Red® labelled bovine serum albumin and 1 mg unlabeled BSA was added to 20 ml PD fluid and intraperitoneal volumes were determined from the dilution calculated from fluorescence values of cell-free samples. The intraperitoneal volumes obtained from measurements of Texas Red® albumin after PD fluid exposure increased when citrate was added to the PD fluid, see FIG. 2. The citrate concentration used in the test of FIG. 2 was 10 mM.
compound,measurement,setting,value
"O=C(O)CC(O)(CC(=O)O)C(=O)O [citrate, tri-sodium citrate]",citrate concentration providing a reasonable inhibited complement cascade,"[1]; read from FIG. 1, lower limit of citrate in PD fluid",at least 4 mM
same,C3a-desarg concentration (complement activation),"[1]; venous blood in PD fluid with citrate additions of 0, 2, 4, 6, 8 and 10 mM, Zymosan, FIG. 1",decreased with increasing citrate concentration
same,intraperitoneal volumes (ultrafiltration) after PD fluid exposure,[2],increased
